Measured values as given in ChEMBL document CHEMBL3045426, “Synthesis, Antiviral and Antibacterial Activities of Isatin Mannich Bases” (Med Chem Res, 2005).
In brackets after ≈: the same amount, converted by molar mass.

Assays:
Pseudomonas aeruginosa = assay: Antimicrobial activity against Pseudomonas aeruginosa after 18 to 20 hr by agar dilution method; format: functional
Citrobacter freundii = assay: Antimicrobial activity against Citrobacter freundii after 18 to 20 hr by agar dilution method; format: functional
Salmonella enteritidis = assay: Antimicrobial activity against Salmonella enterica subsp. enterica serovar Enteritidis after 18 to 20 hr by agar dilution method; format: functional
Klebsiella pneumoniae [1] = assay: Antimicrobial activity against Klebsiella pneumoniae after 18 to 20 hr by agar dilution method; format: functional
[2] = test system: Human immunodeficiency virus 1; assay: Antiviral activity against Human immunodeficiency virus 1 IIIB infected MT4 cells assessed as protection against viral infection after 5 days by MTT assay; format: functional; design: concentration or dose not given beside the values
Vibrio mimicus = assay: Antimicrobial activity against Vibrio mimicus after 18 to 20 hr by agar dilution method; format: functional
[3] = Selectivity index, ratio of CC50 for human MT4 cells to EC50 for HIV1 3B infected in MT4 cells; format: toxicity, cell-based; conditions: read-out: Ratio CC50/EC50
[4] = Cytotoxicity against Homo sapiens (human) CEM cells after 5 days by MTT assay; format: cell-based; conditions: CEM cells (CCRF-CEM)
Klebsiella pneumoniae [5] = assay: Antimicrobial activity against Klebsiella pneumoniae subsp. ozaenae after 18 to 20 hr by agar dilution method; format: functional
Enterobacter = assay: Antimicrobial activity against Enterobacter after 18 to 20 hr by agar dilution method; format: functional
[6] = test system: Human immunodeficiency virus 1; assay: Antiviral activity against Human immunodeficiency virus 1 IIIB infected CEM cells assessed as protection against viral infection after 6 days by XTT assay; format: functional, CCRF-CEM; design: concentration or dose not given beside the values
[7] = Cytotoxicity against Homo sapiens (human) MT4 cells after 5 days by MTT assay; format: cell-based
Vibrio fluvialis = assay: Antimicrobial activity against Vibrio fluvialis after 18 to 20 hr by agar dilution method; format: functional
[8] = test system: Human immunodeficiency virus 1; assay: Antiviral activity against Human immunodeficiency virus 1 IIIB infected CEM cells assessed as inhibition of virus-induced cytopathicity after 6 days by XTT assay; format: functional, organism-based; conditions: CCRF-CEM, 144 h
[9] = Cytotoxicity against Homo sapiens (human) HuH7 cells assessed as cell growth at 50 ug/ml after 3 days by Neutral red assay; format: cell-based, Huh-7; conditions: read-out: Activity
[10] = test system: Human immunodeficiency virus 1; assay: Antiviral activity against Human immunodeficiency virus 1 IIIB infected MT4 cells assessed as inhibition of virus-induced cytopathicity after 5 days by MTT assay; format: functional, organism-based; conditions: MT4, 120 h
Staphylococcus aureus = assay: Antimicrobial activity against Staphylococcus aureus after 18 to 20 hr by agar dilution method; format: functional
Vibrio cholerae [11] = assay: Antimicrobial activity against Vibrio cholerae 0139 after 18 to 20 hr by agar dilution method; format: functional; conditions: 139
Proteus vulgaris = assay: Antimicrobial activity against Proteus vulgaris after 18 to 20 hr by agar dilution method; format: functional
Shigella boydii = assay: Antimicrobial activity against Shigella boydii after 18 to 20 hr by agar dilution method; format: functional
Escherichia coli [12] = assay: Antimicrobial activity against Escherichia coli NCTC 10418 after 18 to 20 hr by agar dilution method; format: functional
Proteus mirabilis = assay: Antimicrobial activity against Proteus mirabilis after 18 to 20 hr by agar dilution method; format: functional
Salmonella typhi = assay: Antimicrobial activity against Salmonella enterica subsp. enterica serovar Typhi after 18 to 20 hr by agar dilution method; format: functional
Salmonella typhimurium = assay: Antimicrobial activity against Salmonella enterica subsp. enterica serovar Typhimurium after 18 to 20 hr by agar dilution method; format: functional
Plesiomonas = assay: Antimicrobial activity against Plesiomonas after 18 to 20 hr by agar dilution method; format: functional
Salmonella paratyphi = assay: Antimicrobial activity against Salmonella enterica subsp. enterica serovar Paratyphi A after 18 to 20 hr by agar dilution method; format: functional
Edwardsiella tarda = assay: Antimicrobial activity against Edwardsiella tarda after 18 to 20 hr by agar dilution method; format: functional
Shigella sonnei = assay: Antimicrobial activity against Shigella sonnei after 18 to 20 hr by agar dilution method; format: functional
[13] = test system: Mycobacterium tuberculosis; assay: Antimycobacterial activity against Mycobacterium tuberculosis H37Rv ATCC 27294 at 6.25 ug/ml by MABA; format: functional
Hepatitis C virus = assay: Antiviral activity against Hepatitis C virus BM4-5 infected in Huh7 cells assessed as inhibition of viral RNA replication by phosphor screening method; format: functional, Hepacivirus hominis, Huh-7
Vibrio cholerae [14] = assay: Antimicrobial activity against Vibrio cholerae 01 after 18 to 20 hr by agar dilution method; format: functional; conditions: 1
Morganella morganii = assay: Antimicrobial activity against Morganella morganii after 18 to 20 hr by agar dilution method; format: functional
Vibrio parahaemolyticus = assay: Antimicrobial activity against Vibrio parahaemolyticus after 18 to 20 hr by agar dilution method; format: functional
Priestia megaterium = assay: Antimicrobial activity against Bacillus megaterium after 18 to 20 hr by agar dilution method; format: functional
Escherichia coli [15] = assay: Antibacterial activity against Escherichia coli NCTC 10418 infected in po dosed CF mouse compound administered 1 hr prior and 4 hr post infection; format: functional; conditions: NCTC 10418, po

| Structure (SMILES) | MIC (Pseudomonas aeruginosa) [µg/mL] | MIC (Citrobacter freundii) [µg/mL] | MIC (Salmonella enteritidis) [µg/mL] | MIC (Klebsiella pneumoniae [1]) [µg/mL] | MIC (Vibrio mimicus) [µg/mL] | MIC (Klebsiella pneumoniae [5]) [µg/mL] | MIC (Enterobacter) [µg/mL] | MIC (Vibrio fluvialis) [µg/mL] | MIC (Staphylococcus aureus) [µg/mL] | MIC (Vibrio cholerae [11]) [µg/mL] | MIC (Proteus vulgaris) [µg/mL] | MIC (Shigella boydii) [µg/mL] | MIC (Proteus mirabilis) [µg/mL] | MIC (Salmonella typhi) [µg/mL] | MIC (Salmonella typhimurium) [µg/mL] | MIC (Plesiomonas) [µg/mL] | MIC (Salmonella paratyphi) [µg/mL] | MIC (Edwardsiella tarda) [µg/mL] | MIC (Shigella sonnei) [µg/mL] | MIC (Vibrio cholerae [14]) [µg/mL] | further results |
| --- | --- | --- | --- | --- | --- | --- | --- | --- | --- | --- | --- | --- | --- | --- | --- | --- | --- | --- | --- | --- | --- |
| CCN(CC)CN1C(=O)/C(=N\c2ncc(Cc3cc(OC)c(OC)c(OC)c3)c(N)n2)c2cc(Cl)ccc21 | 1250 (≈ 2320 µM) | 312 (≈ 580 µM) | 625 (≈ 1160 µM) | 1250 (≈ 2320 µM) | 9.76 (≈ 18.1 µM) | 625 (≈ 1160 µM) | 312 (≈ 580 µM) | 625 (≈ 1160 µM) | 625 (≈ 1160 µM) | 312 (≈ 580 µM) | 625 (≈ 1160 µM) | 39.1 (≈ 72.5 µM) | 312 (≈ 580 µM) | 1250 (≈ 2320 µM) | 312 (≈ 580 µM) | 19.5 (≈ 36.2 µM) | 78.1 (≈ 145 µM) | 1250 (≈ 2320 µM) | 1250 (≈ 2320 µM) | 1.22 (≈ 2.26 µM) | Activity [2]: 64.1%; selectivity ratio [3]: 3; CC50 at 120 h [4]: 98.4 µg/mL (≈ 183 µM); Activity [6]: 20.69%; CC50 at 120 h [7]: 79.1 µg/mL (≈ 147 µM); EC50 [8]: > 98.4 µg/mL; viability at 72 h, 50 ug/ml [9]: 72%; EC50 [10]: 23.6 µg/mL (≈ 43.8 µM); MIC (Escherichia coli [12]): 1250 µg/mL (≈ 2320 µM); inhibition at 6.25 µg/mL [13]: 53%; inhibition (INH) (Hepatitis C virus): 67%; MIC (Morganella morganii): 625 µg/mL (≈ 1160 µM); MIC (Vibrio parahaemolyticus): 39.1 µg/mL (≈ 72.5 µM); MIC (Priestia megaterium): 1250 µg/mL (≈ 2320 µM) |
| COc1cc(Cc2cnc(/N=C3\C(=O)N(CN4CCN(c5cccc(Cl)c5)CC4)c4ccc(Cl)cc43)nc2N)cc(OC)c1OC | 156 (≈ 236 µM) | 1250 (≈ 1890 µM) | 1250 (≈ 1890 µM) | 1250 (≈ 1890 µM) | 9.76 (≈ 14.7 µM) | 1250 (≈ 1890 µM) | 625 (≈ 943 µM) | 625 (≈ 943 µM) | 1250 (≈ 1890 µM) | 625 (≈ 943 µM) | 1250 (≈ 1890 µM) | 19.5 (≈ 29.5 µM) | 1250 (≈ 1890 µM) | 1250 (≈ 1890 µM) | 625 (≈ 943 µM) | 19.5 (≈ 29.5 µM) | 1250 (≈ 1890 µM) | 1250 (≈ 1890 µM) | 1250 (≈ 1890 µM) | 0.61 (≈ 0.921 µM) | Activity [2]: 20.9%; CC50 at 120 h [4]: 34.4 µg/mL (≈ 51.9 µM); Activity [6]: 23%; CC50 at 120 h [7]: 39.2 µg/mL (≈ 59.2 µM); EC50 [8]: > 34.4 µg/mL; viability at 72 h, 50 ug/ml [9]: 67%; EC50 [10]: > 39.2 µg/mL; MIC (Escherichia coli [12]): 1250 µg/mL (≈ 1890 µM); inhibition at 6.25 µg/mL [13]: 44%; inhibition (INH) (Hepatitis C virus): 96%; MIC (Morganella morganii): 1250 µg/mL (≈ 1890 µM); MIC (Vibrio parahaemolyticus): 1.22 µg/mL (≈ 1.84 µM); MIC (Priestia megaterium): 1250 µg/mL (≈ 1890 µM) |
| O=C(O)c1cn(C2CC2)c2cc(N3CCNCC3)c(F)cc2c1=O [CIPROFLOXACIN] | 0.15 (≈ 0.453 µM) | 0.04 (≈ 0.121 µM) | 0.04 (≈ 0.121 µM) | 0.04 (≈ 0.121 µM) | 0.04 (≈ 0.121 µM) | 0.15 (≈ 0.453 µM) | 0.04 (≈ 0.121 µM) | 0.04 (≈ 0.121 µM) | 0.04 (≈ 0.121 µM) | 0.04 (≈ 0.121 µM) | 0.04 (≈ 0.121 µM) | 0.04 (≈ 0.121 µM) | 0.04 (≈ 0.121 µM) | 0.04 (≈ 0.121 µM) | 0.04 (≈ 0.121 µM) | 0.04 (≈ 0.121 µM) | 0.04 (≈ 0.121 µM) | 0.04 (≈ 0.121 µM) | 0.04 (≈ 0.121 µM) | 0.04 (≈ 0.121 µM) | ED50 (Escherichia coli [15]): 1.25 mg/kg; MIC (Morganella morganii): 0.04 µg/mL (≈ 0.121 µM); MIC (Vibrio parahaemolyticus): 0.04 µg/mL (≈ 0.121 µM); MIC (Priestia megaterium): 0.04 µg/mL (≈ 0.121 µM) |
| CCn1cc(C(=O)O)c(=O)c2cc(F)c(N3CCNC(C)C3)c(F)c21 (stereo unspecified) [LOMEFLOXACIN] | 4.88 (≈ 13.9 µM) | 19.5 (≈ 55.6 µM) | 19.5 (≈ 55.6 µM) | 2.44 (≈ 6.94 µM) | 1.22 (≈ 3.47 µM) | 1.22 (≈ 3.47 µM) | 19.5 (≈ 55.6 µM) | 1.22 (≈ 3.47 µM) | 0.61 (≈ 1.74 µM) | 2.44 (≈ 6.94 µM) | 0.61 (≈ 1.74 µM) | 9.77 (≈ 27.8 µM) | 2.44 (≈ 6.94 µM) | 9.77 (≈ 27.8 µM) | 4.88 (≈ 13.9 µM) | 1.22 (≈ 3.47 µM) | 0.61 (≈ 1.74 µM) | 4.88 (≈ 13.9 µM) | 39.1 (≈ 111 µM) | 0.02 (≈ 0.0569 µM) | ED50 (Escherichia coli [15]): 1.87 mg/kg; MIC (Escherichia coli [12]): 0.61 µg/mL (≈ 1.74 µM); MIC (Morganella morganii): 1.22 µg/mL (≈ 3.47 µM); MIC (Vibrio parahaemolyticus): 39.1 µg/mL (≈ 111 µM); MIC (Priestia megaterium): 19.5 µg/mL (≈ 55.6 µM) |
